Source: paper PMC5670154, “Anti-tumor and Anti-angiogenic Ergosterols from Ganoderma lucidum” (Frontiers in Chemistry, 2017)
Read-outs that look alike come from different tables or passages of the source.

How the values were obtained:
[1] = system: human hepatocellular carcinoma cells HepG2; experiment: MTT anti-proliferative assay, HepG2; format: cell-based; settings: for Experimental pIC50: HepG2
Procedure: (§1) Human breast carcinoma cells MDA-MB-231, human hepatocellular carcinoma cells HepG2, and human lung carcinoma cells A549, were purchased from ATCC, or were gifted by Professor Burton B. Yang from University of Toronto, Canada. The anti-proliferative effect of total extract (GL), fractions (GL1–GL4), and compounds 1–14 on tumor cell lines was evaluated by MTT assay (Franchi et al., [2012]). Total extract (GL) and fractions (GL1–GL4) were evaluated for their anti-proliferative effect on three types of carcinoma cells (MDA-MB-231, HepG2, and A549). Compounds 1–14 were chosen to evaluate for their anti-proliferative effect against MDA-MB-231 and HepG2 cells. Hundred microliters of cells suspension (5 × 10^4 cells/mL) was seeded into wells of a 96-well plate. After being incubated for 4 h, different concentrations of fractions/compounds were added onto the cells and incubated. After 48 h, 150 μL of 3-[4,5-dimethylthiazol-2-yl]-2,5-diphenyl tetrazolium bromide (MTT) solution (Sigma) was added to each well, and cells were kept being incubated for 4 h. After removing the MTT/medium, DMSO (100 μL) of was added to each well and was agitated at 60 rpm for 5 min. The optical density of the assay 96-well plate was read (λ = 540 nm) on a microplate reader.
(§2) IC50-values were calculated and analyzed using SPSS with three replications, each carried out in triplicate. Data were expressed as mean ± SD and analyzed by one-way ANOVA followed by two-tailed Student's t-test. A difference was considered significant at the P < 0.05 or P < 0.01 level.

[2] = system: Human breast carcinoma cells MDA-MB-231; experiment: MTT anti-proliferative assay, MDA-MB-231; format: cell-based; settings: mean ± SD
Procedure: as §1, §2

HUVECs = experiment: Anti-angiogenesis activity, MTT assay on HUVECs; format: cell-based, human; settings: for EC50: MTT, 48 h, mean ± SD; for selective inhibition, tumor cells versus HUVECs: comparison of MDA-MB-231/HepG2 and HUVEC values
Procedure: HUVECs (KeyGEN BioTECH Co., Ltd, Jiangsu, China) were cultured in ECM (endothelial cell medium) with 5% (v/v) FBS, 1% (v/v) ECGS, and 1% penicillin-streptomycin (w/v) at 37°C in a cell incubator. The MTT assay was employed to assess the anti-angiogenic effect of the isolated compounds against HUVECs as described previously with mild modification (Liang et al., [2015]; Nguyen et al., [2015]). Briefly, HUVECs were seeded into a 96-well plate and incubated. Different concentrations of compounds 1–14 were added onto the cells after 4 h, and continued to be co-incubated for 48 h. Next, the cells were co-incubated with MTT (Sigma, St. Louis, MO, USA) to a final concentration of 0.05% for another 4 h. Then, replacing the MTT solution with […] DMSO, and kept the plates being shaken for 3 min. The optical density of each well was measured on a microplate reader at λ = 570 nm.
as §2

[3] = system: mouse embryonic fibroblasts (NIH/3T3); experiment: Cytotoxicity on normal cells NIH/3T3; format: cell-based
Procedure: Anti-proliferative activity evaluation against two types of human cancer cells (MDA-MB-231 and HepG2), HUVECs and mouse embryonic fibroblasts (NIH/3T3, used as normal cells) were then carried out.

[4] = Homo sapiens, HepG2, 48 h, MTT, 48 h, mean ± SD, read-out: IC50 HepG2
[5] = Homo sapiens, HepG2, HepG2, converted from observed IC50s (μM), read-out: Experimental pIC50 (converted)
[6] = Mus musculus, NIH3T3, mean ± SD
[7] = MTT, 48 h, mean ± SD, read-out: IC50 HepG2
[8] = converted from observed IC50s (μM)

Compound | IC50 [1, 4] [µM] | IC50 [1, 5] [µM] | IC50 ([2]; Homo sapiens, MDA-MB-231, 48 h) [µM] | EC50 (HUVECs; Homo sapiens, HUVEC) [µM] | EC50 [3, 6] [µM] | IC50 [1, 7] [µM] | IC50 ([2]; 48 h) [µM] | selective inhibition, tumor cells versus HUVECs (HUVECs) | Experimental pIC50 [1, 8] | decline of activity in comparison with compound 2 ([1]; HepG2 IC50) | EC50 (HUVECs; read-out: EC50 HUVEC) [µM] | EC50 ([3]; mean ± SD) [µM] | increase of activity compared with compound 2 ([1]; HepG2 IC50)
CC(C)[C@@H](C)/C=C/[C@@H](C)[C@H]1CC[C@H]2C3=C[C@H](O)[C@@]4(O)C[C@@H](O)CC[C@]4(C)[C@H]3CC[C@]12C [Compound 5, (3β, 5α, 6α, 22E)-ergosta-7, 22-diene-3,5,6-triol] | 197 ± 20.1 | 197 | 114 ± 9.9 | 206 ± 12.2 | > 500 | – | – | – | – | – | – | – | –
CC(C)[C@@H](C)/C=C/[C@@H](C)[C@H]1CC[C@H]2C3=C[C@@H](O)[C@@]4(O)C[C@@H](O)CC[C@]4(C)C3=CC[C@]12C [Compound 2, (3β, 5α, 6β, 22E)-ergosta-7, 9 (11), 22-triene-3,5,6-triol] | < 100 | 62.5 | < 100 | 142 ± 3.6 | 303 ± 11.9 | 62.5 ± 1.3 | 56.3 ± 1.5 | significant selective inhibition against cancer cells | – | – | – | – | –
O=c1c(O)c(-c2ccc(O)cc2)oc2cc(O)cc(O)c12 [kaempferol, reference compound] | 45.4 ± 3.4 | 45.4 | 56.6 ± 3.1 | 35.5 ± 4.1 | 356 ± 15.9 | – | – | – | – | – | – | – | –
CC(C)[C@@H](C)/C=C/[C@@H](C)[C@H]1CC[C@H]2C3=C[C@@H](O)[C@@]4(O)C[C@@H](O)CC[C@]4(C)[C@H]3CC[C@]12C [Compound 4, (3β, 5α, 6β, 22E)-ergosta-7, 22-diene-3,5,6-triol] | 175 ± 15.9 | 175 | 149 ± 8.7 | 345 ± 13.7 | > 500 | – | – | – | – | – | – | – | –
CC(C)[C@@H](C)/C=C/[C@@H](C)[C@H]1CC[C@H]2C3=C[C@H](O)[C@@]4(O)C[C@@H](O)CC[C@]4(C)[C@@]3(O)CC[C@]12C [Compound 6, (3β, 5α, 6α, 9α, 22E)-ergosta-7, 22-diene-3,5,6,9-tetrol] | 185 ± 9.5 | 185 | 224 ± 10 | 384 ± 10.9 | > 500 | – | – | – | – | – | – | – | –
(3β, 5α, 6β, 9α, 14α, 22E)-ergosta-7, 22-diene-3, 5, 6, 9, 14-pentol [Compound 8] | – | – | – | – | – | 286 ± 18.9 | 216 ± 14.3 | – | 3.543 | approximately 4.6 folds | 357 ± 19.5 | > 500 | –
CO[C@@H]1C=C2[C@@H]3CC[C@H]([C@H](C)/C=C/[C@H](C)C(C)C)[C@@]3(C)CC[C@@H]2[C@@]2(C)CC[C@H](O)[C@H]3O[C@@]312 [Compound 1, (22E)-4α, 5α-epoxy-6β-methoxyergosta-7, 22-diene-3β-ol] | 138 ± 8.3 | 138 | 176 ± 5.1 | 144 ± 6.1 | 422 ± 9.3 | – | – | – | – | – | – | – | –
(3β, 5α, 6β, 9α, 22E)-ergosta-7, 22-diene-3, 5, 6, 9-tetrol [Compound 3] | – | – | – | – | – | 130 ± 3.4 | 148 ± 5.8 | selective inhibition against HUVECs | 3.887 | – | 84 ± 6.7 | 365 ± 15.7 | –
CC(C)[C@@H](C)/C=C/[C@@H](C)[C@H]1CC[C@H]2C3=CC=C4C[C@@H](O)CC[C@]4(C)[C@H]3CC[C@]12C [Compound 12, (3β, 22E)-ergosta-5,7, 22-trien-3-ol] | 75.6 ± 4.7 | – | 69.7 ± 5.8 | 72.4 ± 5.6 | 261 ± 12 | – | – | – | – | – | – | – | –
CC(C)[C@@H](C)/C=C/[C@@H](C)[C@H]1CC[C@H]2C3=C(CC[C@]12C)[C@@]1(C)CC[C@H](O)C[C@@]12O[C@H]2[C@H]3O [Compound 9, (3β, 5α, 6α, 7α, 22E)-5,6-epoxy-ergosta-8, 22-diene-3,7-diol] | 22.1 ± 0.9 | 22.1 | 20.3 ± 2.2 | 27.9 ± 1.7 | 183 ± 10.3 | – | – | – | – | – | – | – | approximately 3 folds
(3β, 5α, 6β, 14α, 22E)-ergosta-7, 9 (11), 22-triene-3, 5, 6, 14-tetrol [Compound 7] | – | – | – | – | – | 156 ± 8.9 | 169 ± 11.1 | – | 3.806 | – | 188 ± 15.3 | > 500 | –
CC(C)[C@@H](C)/C=C/[C@@H](C)[C@H]1CC[C@@H]2[C@]1(C)CC[C@H]1[C@]23C=C[C@]2(C[C@@H](O)CC[C@]12C)OO3 [Compound 11, (3β, 5α, 8α, 22E)-5,8-epidioxy-ergosta-6, 22-dien-3-ol] | 34.8 ± 2.6 | 34.8 | 44.6 ± 1.9 | 29.1 ± 3.2 | 197 ± 11.3 | – | – | – | – | – | – | – | –
CC(C)[C@@H](C)/C=C/[C@@H](C)[C@H]1CCC2=C3[C@H](O)[C@@H]4O[C@@]45C[C@@H](O)CC[C@]5(C)[C@H]3CC[C@@]21C [Compound 10, (3β, 5α, 6α, 7α, 22E)-5,6-epoxy-ergosta-8 (14), 22-diene-3,7-diol] | 50.6 ± 5.3 | 50.6 | 46.7 ± 5.4 | 48.7 ± 2.9 | 194 ± 9.6 | – | – | – | – | – | – | – | –
CC(C)[C@@H](C)/C=C/[C@@H](C)[C@H]1CC[C@@]2(O)C3=C(CC[C@]12C)[C@@]1(C)CC[C@H](O)C[C@@]12O[C@H]2C3=O [Compound 14, (3β, 5α, 6α, 14α, 22E)-3, 14-dihydroxy-5,6-epoxy-ergosta-8, 22-dien-7-one] | 201 ± 6.4 | – | 189 ± 8.1 | 321 ± 18.9 | > 500 | – | – | – | – | – | – | – | –
CC(C)[C@@H](C)/C=C/[C@@H](C)[C@H]1CC[C@@H]2[C@]1(C)CC=C1[C@]23C=C[C@]2(C[C@@H](O)CC[C@]12C)OO3 [Compound 13, (3β, 5α, 8α, 22E)-5,8-epidioxy-ergosta-6, 9 (11), 22-trien-3-ol] | 44.5 ± 1.3 | 44.5 | 32.1 ± 3 | 51.6 ± 2.8 | 293 ± 17.2 | – | – | – | – | – | – | – | –
